# Results as given in the supplement of paper PMC10307832.
# How the values were obtained:
# Assay in all cases: relative viability (nuclei count vs DMSO), 5 days (fraction); higher = more cells survive
# BEN = test system: BEN
# Summary of the method: (§1)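 After 5 days of treatment, lung cancer cells in 1536-well plates were fixed and stained in a single step (final 0.05% Triton X-100, 1% formaldehyde, 1 ug/ml Hoechst) and their nuclei counted on 4× images. Treatment had been applied by pin tool the day after seeding as one drug alone or as a fixed anchor-drug dose with five library-drug doses (not always all listed) in √10 steps. Relative viability is the nuclei count of treated wells divided by that of vehicle wells, and values are medians of duplicate plates.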
# EMC-BAC-2 = test system: EMC-BAC-2
# Summary of the method: as §1
# H3255 = test system: H3255
# Summary of the method: as §1
# HOP-62 = test system: HOP-62
# Summary of the method: as §1
# LCLC-97TM1 = test system: LCLC-97TM1
# Summary of the method: as §1
# LXF-289 = test system: LXF-289
# Summary of the method: as §1
# NCI-H1563 = test system: NCI-H1563
# Summary of the method: as §1
# NCI-H1650 = test system: NCI-H1650
# Summary of the method: as §1
# NCI-H1915 = test system: NCI-H1915
# Summary of the method: as §1
# NCI-H1993 = test system: NCI-H1993
# Summary of the method: as §1
# NCI-H2009 = test system: NCI-H2009
# Summary of the method: as §1
# NCI-H2023 = test system: NCI-H2023
# Summary of the method: as §1
# NCI-H2085 = test system: NCI-H2085
# Summary of the method: as §1
# NCI-H2126 = test system: NCI-H2126
# Summary of the method: as §1
# NCI-H2347 = test system: NCI-H2347
# Summary of the method: as §1
# NCI-H322M = test system: NCI-H322M
# Summary of the method: as §1
# NCI-H647 = test system: NCI-H647
# Summary of the method: as §1
# NCI-H661 = test system: NCI-H661
# Summary of the method: as §1
# NCI-H727 = test system: NCI-H727
# Summary of the method: as §1
# PC-14 = test system: PC-14
# Summary of the method: as §1
# SK-LU-1 = test system: SK-LU-1
# Summary of the method: as §1
# SW 1573 = test system: SW 1573
# Summary of the method: as §1
structure (smiles),measurement,setting,value
C[C@@H]1CN(CC(=O)Nc2ccc3c(c2)Cc2cccc(-c4cc(=O)cc(N5CCOCC5)o4)c2S3)C[C@H](C)O1 + CC(C)C[C@H](NC(=O)[C@H](Cc1ccccc1)NC(=O)c1cnccn1)B(O)O [Bortezomib] (partner 0.002 µM),relative viability,BEN; first compound 0.04 µM,0.624
same,relative viability,BEN; first compound 0.1265 µM,0.71
same,relative viability,BEN; first compound 0.4 µM,0.861
same,relative viability,BEN; first compound 4 µM,0.788
same,relative viability,EMC-BAC-2; first compound 0.04 µM,1.07
same,relative viability,EMC-BAC-2; first compound 0.1265 µM,1.1
same,relative viability,EMC-BAC-2; first compound 0.4 µM,1.06
same,relative viability,EMC-BAC-2; first compound 4 µM,0.985
same,relative viability,H3255; first compound 0.04 µM,0.495
same,relative viability,H3255; first compound 0.1265 µM,0.771
same,relative viability,H3255; first compound 0.4 µM,0.534
same,relative viability,H3255; first compound 4 µM,0.582
same,relative viability,HOP-62; first compound 0.04 µM,0.677
same,relative viability,HOP-62; first compound 0.1265 µM,0.548
same,relative viability,HOP-62; first compound 0.4 µM,0.755
same,relative viability,HOP-62; first compound 4 µM,1.02
same,relative viability,LCLC-97TM1; first compound 0.1265 µM,0.615
same,relative viability,LCLC-97TM1; first compound 0.4 µM,0.33
same,relative viability,LCLC-97TM1; first compound 4 µM,0.391
same,relative viability,LXF-289; first compound 0.04 µM,0.996
same,relative viability,LXF-289; first compound 0.1265 µM,0.977
same,relative viability,LXF-289; first compound 0.4 µM,1.02
same,relative viability,LXF-289; first compound 4 µM,0.999
same,relative viability,NCI-H1563; first compound 0.04 µM,0.89
same,relative viability,NCI-H1563; first compound 0.1265 µM,1.01
same,relative viability,NCI-H1563; first compound 0.4 µM,0.828
same,relative viability,NCI-H1563; first compound 4 µM,0.797
same,relative viability,NCI-H1650; first compound 0.04 µM,0.221
same,relative viability,NCI-H1650; first compound 0.1265 µM,0.23
same,relative viability,NCI-H1650; first compound 0.4 µM,0.192
same,relative viability,NCI-H1650; first compound 4 µM,0.183
same,relative viability,NCI-H1915; first compound 0.04 µM,0.905
same,relative viability,NCI-H1915; first compound 0.1265 µM,0.964
same,relative viability,NCI-H1915; first compound 0.4 µM,1.03
same,relative viability,NCI-H1915; first compound 4 µM,0.73
same,relative viability,NCI-H1993; first compound 0.04 µM,1.12
same,relative viability,NCI-H1993; first compound 0.1265 µM,1.08
same,relative viability,NCI-H1993; first compound 0.4 µM,0.763
same,relative viability,NCI-H1993; first compound 4 µM,1.01
same,relative viability,NCI-H2009; first compound 0.04 µM,0.982
same,relative viability,NCI-H2009; first compound 0.1265 µM,1.01
same,relative viability,NCI-H2009; first compound 0.4 µM,0.933
same,relative viability,NCI-H2009; first compound 4 µM,0.714
same,relative viability,NCI-H2023; first compound 0.04 µM,1.06
same,relative viability,NCI-H2023; first compound 0.1265 µM,0.969
same,relative viability,NCI-H2023; first compound 0.4 µM,0.783
same,relative viability,NCI-H2023; first compound 4 µM,0.876
same,relative viability,NCI-H2085; first compound 0.04 µM,0.999
same,relative viability,NCI-H2085; first compound 0.1265 µM,1.04
same,relative viability,NCI-H2085; first compound 0.4 µM,0.975
same,relative viability,NCI-H2085; first compound 4 µM,0.805
same,relative viability,NCI-H2126; first compound 0.04 µM,1.13
same,relative viability,NCI-H2126; first compound 0.1265 µM,1.12
same,relative viability,NCI-H2126; first compound 0.4 µM,1.17
same,relative viability,NCI-H2126; first compound 4 µM,1.06
same,relative viability,NCI-H2347; first compound 0.04 µM,0.923
same,relative viability,NCI-H2347; first compound 0.1265 µM,1.03
same,relative viability,NCI-H2347; first compound 0.4 µM,1.2
same,relative viability,NCI-H2347; first compound 4 µM,0.958
same,relative viability,NCI-H322M; first compound 0.04 µM,1.09
same,relative viability,NCI-H322M; first compound 0.1265 µM,1.14
same,relative viability,NCI-H322M; first compound 0.4 µM,1.32
same,relative viability,NCI-H322M; first compound 4 µM,1.12
same,relative viability,NCI-H647; first compound 0.04 µM,1
same,relative viability,NCI-H647; first compound 0.1265 µM,1.02
same,relative viability,NCI-H647; first compound 0.4 µM,0.985
same,relative viability,NCI-H647; first compound 4 µM,0.484
same,relative viability,NCI-H661; first compound 0.1265 µM,0.798
same,relative viability,NCI-H661; first compound 0.4 µM,0.765
same,relative viability,NCI-H661; first compound 4 µM,0.778
same,relative viability,NCI-H727; first compound 0.04 µM,0.892
same,relative viability,NCI-H727; first compound 0.1265 µM,0.824
same,relative viability,NCI-H727; first compound 0.4 µM,0.804
same,relative viability,NCI-H727; first compound 4 µM,0.878
same,relative viability,PC-14; first compound 0.04 µM,0.993
same,relative viability,PC-14; first compound 0.1265 µM,0.859
same,relative viability,PC-14; first compound 0.4 µM,0.798
same,relative viability,PC-14; first compound 4 µM,0.664
same,relative viability,SK-LU-1; first compound 0.04 µM,1.17
same,relative viability,SK-LU-1; first compound 0.1265 µM,1.43
same,relative viability,SK-LU-1; first compound 0.4 µM,1.09
same,relative viability,SK-LU-1; first compound 4 µM,1.13
same,relative viability,SW 1573; first compound 0.04 µM,1.17
same,relative viability,SW 1573; first compound 0.1265 µM,1.15
same,relative viability,SW 1573; first compound 0.4 µM,0.926
same,relative viability,SW 1573; first compound 4 µM,0.976
